The assay concerns the target T1, POLγA:A467T (Homo sapiens, UniProt P54098, A467T).
T1 sequence (P54098 1-1239 A467T): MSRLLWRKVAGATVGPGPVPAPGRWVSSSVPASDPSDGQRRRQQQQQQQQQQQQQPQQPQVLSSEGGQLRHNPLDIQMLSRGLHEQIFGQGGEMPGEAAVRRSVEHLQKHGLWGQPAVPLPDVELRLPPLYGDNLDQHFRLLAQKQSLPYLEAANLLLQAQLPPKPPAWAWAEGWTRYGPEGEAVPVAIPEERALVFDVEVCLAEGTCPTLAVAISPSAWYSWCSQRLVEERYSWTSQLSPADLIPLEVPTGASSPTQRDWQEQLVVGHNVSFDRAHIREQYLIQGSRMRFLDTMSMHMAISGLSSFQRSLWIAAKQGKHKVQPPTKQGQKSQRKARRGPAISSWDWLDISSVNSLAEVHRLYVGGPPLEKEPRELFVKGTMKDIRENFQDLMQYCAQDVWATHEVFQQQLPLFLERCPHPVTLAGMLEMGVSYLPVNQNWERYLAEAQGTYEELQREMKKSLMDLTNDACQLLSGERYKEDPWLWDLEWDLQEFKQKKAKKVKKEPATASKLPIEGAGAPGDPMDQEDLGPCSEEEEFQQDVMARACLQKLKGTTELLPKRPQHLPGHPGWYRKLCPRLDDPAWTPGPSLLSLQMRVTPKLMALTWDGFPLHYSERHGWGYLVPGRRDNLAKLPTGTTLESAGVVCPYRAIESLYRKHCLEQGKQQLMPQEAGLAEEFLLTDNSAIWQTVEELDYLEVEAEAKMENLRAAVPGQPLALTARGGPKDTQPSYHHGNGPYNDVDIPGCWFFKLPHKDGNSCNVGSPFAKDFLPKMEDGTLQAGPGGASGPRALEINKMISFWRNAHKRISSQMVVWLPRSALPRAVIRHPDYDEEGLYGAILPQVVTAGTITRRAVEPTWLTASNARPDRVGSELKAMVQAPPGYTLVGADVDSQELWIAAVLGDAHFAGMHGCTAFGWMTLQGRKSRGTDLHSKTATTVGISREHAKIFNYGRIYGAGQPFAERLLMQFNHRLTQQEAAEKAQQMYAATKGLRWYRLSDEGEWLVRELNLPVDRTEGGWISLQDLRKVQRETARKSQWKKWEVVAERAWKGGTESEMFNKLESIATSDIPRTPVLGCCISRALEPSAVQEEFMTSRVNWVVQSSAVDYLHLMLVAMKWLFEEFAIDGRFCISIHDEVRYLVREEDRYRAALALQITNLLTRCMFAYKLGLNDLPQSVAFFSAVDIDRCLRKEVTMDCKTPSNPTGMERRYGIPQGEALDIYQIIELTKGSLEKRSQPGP
T1 sequence (Q9UHN1 1-485 partner): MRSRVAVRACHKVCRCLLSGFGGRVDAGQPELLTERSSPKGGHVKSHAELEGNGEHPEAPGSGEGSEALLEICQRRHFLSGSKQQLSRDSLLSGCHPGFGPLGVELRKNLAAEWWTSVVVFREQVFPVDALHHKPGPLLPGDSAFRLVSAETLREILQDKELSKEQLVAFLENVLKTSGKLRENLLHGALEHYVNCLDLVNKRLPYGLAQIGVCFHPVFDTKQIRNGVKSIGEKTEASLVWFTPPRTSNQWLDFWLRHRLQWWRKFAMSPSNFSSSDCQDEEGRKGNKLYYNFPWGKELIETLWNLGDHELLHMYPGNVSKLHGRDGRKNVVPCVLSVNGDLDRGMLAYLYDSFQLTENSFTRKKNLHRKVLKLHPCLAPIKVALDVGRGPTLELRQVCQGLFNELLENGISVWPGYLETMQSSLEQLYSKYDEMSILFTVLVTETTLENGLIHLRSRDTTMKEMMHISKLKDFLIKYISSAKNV
The assay can be described thus: DNA polymerization assay, POLγA:A467T mutant. The assay is classed as biochemical. Conditions: stimulation of polymerase activity, primed M13mp18 ssDNA, 37° C. 2 hours; read-out: A467T AC50.
`Cc1cc(S(=O)(=O)N[C@H]2CCCN(c3ccccc3)C2)c(C)cc1Cl` [Example 161, (S)-4-chloro-2,5-dimethyl-N-(1-phenylpiperidin-3-yl)benzenesulfonamide]: the AC50 is above 100 µM.

Turning to `Cc1ccc(C)c(S(=O)(=O)Nc2ccc(C(=O)NCC3CC3)cc2)c1` [Example 40, N-(cyclopropylmethyl)-4-((2,5-dimethylphenyl)sulfonamido)benzamide], the AC50 was above 100 µM.

As to `Cc1ccc(C)c(S(=O)(=O)Nc2cccc(C(=O)N3CCCCCC3)c2)c1` [Example 32, N-(3-(azepane-1-carbonyl)phenyl)-2,5-dimethylbenzenesulfonamide], the AC50 was above 100 µM.

In the case of `Cc1ccc(C)c(S(=O)(=O)Nc2cccc(C(=O)N3CCSCC3)c2)c1` [Example 24, 2,5-dimethyl-N-(3-(thiomorpholine-4-carbonyl)phenyl)benzenesulfonamide], the AC50 is above 100 µM.

For `Cc1cc(S(=O)(=O)Nc2csc(-c3ccncc3)n2)c(C)cc1Cl` [Example 176, 4-chloro-2,5-dimethyl-N-(2-(pyridin-4-yl)thiazol-4-yl)benzenesulfonamide], the AC50 was above 100 µM.

Regarding `Cc1cc(S(=O)(=O)Nc2nc(-c3ccccc3)co2)c(C)cc1Cl` [Example 157, 4-chloro-2,5-dimethyl-N-(4-phenyloxazol-2-yl)benzenesulfonamide], the AC50 was above 100 µM.

`Cc1cc(S(=O)(=O)Nc2cccc(C(=O)N3CCN(C)C[C@H]3C)c2)c(C)cc1Cl` [Example 54, (R)-4-chloro-N-(3-(2,4-dimethylpiperazine-1-carbonyl)phenyl)-2,5-dimethylbenzenesulfonamide]: the AC50 is above 100 µM.

Consider `Cc1ccc(C)c(S(=O)(=O)Nc2ccc(C(=O)N3CCCC[C@H]3C)s2)c1` [Example 43, (R)-2,5-dimethyl-N-(5-(2-methylpiperidine-1-carbonyl)thiopheN-2-yl)benzenesulfonamide], for which the AC50 was above 100 µM.

With `Cc1cnc(-c2cccc(NS(=O)(=O)c3cc(C)c(Cl)cc3C)c2)s1` [Example 21, 4-chloro-2,5-dimethyl-N-(3-(5-methylthiazol-2-yl)phenyl)benzenesulfonamide], the AC50 worked out at 3 µM.

Regarding `Cc1ccc(C)c(S(=O)(=O)Nc2cccc(C(=O)NCc3ccccc3)c2)c1` [Example 28, N-benzyl-3-((2,5-dimethylphenyl)sulfonamido)benzamide], the concentration at half-maximal activity (AC50) was above 100 µM.

Regarding `Cc1cc(S(=O)(=O)Nc2nc(-c3ccccc3)cn2C)c(C)cc1Cl` [Example 159, 4-chloro-2,5-dimethyl-N-(1-methyl-4-phenyl-1H-imidazol-2-yl)benzenesulfonamide], the AC50 is above 100 µM.

Take `Cc1cc(S(=O)(=O)Nc2cccc(C(=O)N(C)C(C)CO)c2)c(C)cc1Cl` (single isomer, unassigned) [Example 15, 3-((4-chloro-2,5-dimethylphenyl)sulfonamido)-N-(1-hydroxypropan-2-yl)-N-methylbenzamide]: the AC50 is above 100 µM.

Turning to `Cc1cc(S(=O)(=O)Nc2cn(Cc3ccccc3)cn2)c(C)cc1Cl` [Example 168, N-(1-benzyl-1H-imidazol-4-yl)-4-chloro-2,5-dimethylbenzenesulfonamide], the concentration at half-maximal activity (AC50) was above 100 µM.

As for `COCCNC(=O)c1cccc(NS(=O)(=O)c2cc(C)c(Cl)cc2C)c1` [Example 47, 3-((4-chloro-2,5-dimethylphenyl)sulfonamido)-N-(2-methoxyethyl)benzamide], the AC50 was above 100 µM.

Consider `Cc1ccc(C)c(S(=O)(=O)Nc2cccc(C(=O)N3CCN(C)CC3)c2)c1` [Example 31, 2,5-dimethyl-N-(3-(4-methylpiperazine-1-carbonyl)phenyl)benzenesulfonamide], for which the AC50 is above 100 µM.

Regarding `Cc1cc(S(=O)(=O)Nc2cn(C)c(-c3ccccc3)n2)c(C)cc1Cl` [Example 170, 4-chloro-2,5-dimethyl-N-(1-methyl-2-phenyl-1H-imidazol-4-yl)benzenesulfonamide], the AC50 was above 10 µM.

In the case of `Cc1cc2c(NS(=O)(=O)c3cc(C)c(Cl)cc3C)cccc2[nH]1` [Example 37, 4-chloro-2,5-dimethyl-N-(2-methyl-1H-indol-4-yl)benzenesulfonamide], the AC50 was above 100 µM.

Consider `Cc1cc(S(=O)(=O)Nc2ccc3ccn(C(C)C)c3c2)c(C)cc1Cl` [Example 69, 4-chloro-N-(1-isopropyl-1H-indol-6-yl)-2,5-dimethylbenzenesulfonamide], for which the AC50 amounted to 17 µM.

`Cc1cc(S(=O)(=O)Nc2cccc(C(N)=O)c2)c(C)cc1Cl` [Example 44, 3-((4-chloro-2,5-dimethylphenyl)sulfonamido)benzamide]: the AC50 is above 100 µM.

For `Cc1cc(S(=O)(=O)Nc2cccc(-c3cc(C4CC4)[nH]n3)c2)c(C)cc1Cl` [Example 64, 4-chloro-N-(3-(5-cyclopropyl-1H-pyrazol-3-yl)phenyl)-2,5-dimethylbenzenesulfonamide], the AC50 stood at 8 µM.

`Cc1nc2cc(NS(=O)(=O)c3cc(C)c(Cl)cc3C)ccc2s1` [Example 71, 4-chloro-2,5-dimethyl-N-(2-methylbenzo[d]thiazol-5-yl)benzenesulfonamide]: the AC50 is above 100 µM.

Take `Cc1cc(S(=O)(=O)Nc2csc(-c3ccccn3)n2)c(C)cc1Cl` [Example 173, 4-chloro-2,5-dimethyl-N-(2-(pyridin-2-yl)thiazol-4-yl)benzenesulfonamide]: the AC50 turned out to be 2 µM.

For the compound `Cc1nc2ccc(NS(=O)(=O)c3cc(C)c(Cl)cc3C)cc2o1` [Example 70, 4-chloro-2,5-dimethyl-N-(2-methylbenzo[d]oxazol-6-yl)benzenesulfonamide], the AC50 worked out at 32 µM.

As to `Cc1cc(S(=O)(=O)Nc2csc(C(=O)N(C)CC(N)=O)n2)c(C)cc1Cl` [Example 172, N-(2-amino-2-oxoethyl)-4-((4-chloro-2,5-dimethylphenyl)sulfonamido)-N-methylthiazole-2-carboxamide], the AC50 is above 10 µM.

In the case of `Cc1c(Cl)cccc1S(=O)(=O)Nc1csc(-c2ccccc2)n1` [Example 154, 3-chloro-2-methyl-N-(2-phenylthiazol-4-yl)benzenesulfonamide], the AC50 is above 100 µM.

As for `Cc1cc(S(=O)(=O)Nc2csc(C(=O)N(CC(N)=O)C3CCCC3)n2)c(C)cc1Cl` [Example 177, N-(2-amino-2-oxoethyl)-4-((4-chloro-2,5-dimethylphenyl)sulfonamido)-N-cyclopentylthiazole-2-carboxamide], the AC50 was above 100 µM.

On to `COc1cccc(-c2nc(NS(=O)(=O)c3cc(C)c(Cl)cc3C)cs2)c1` [Example 165, 4-chloro-N-(2-(3-methoxyphenyl)thiazol-4-yl)-2,5-dimethylbenzenesulfonamide], for which the AC50 was found to be 1 µM.

Take `COCCN(C)C(=O)c1cccc(NS(=O)(=O)c2cc(C)c(Cl)cc2C)c1` [Example 58, 3-((4-chloro-2,5-dimethylphenyl)sulfonamido)-N-(2-methoxyethyl)-N-methylbenzamide]: the half-maximal activity concentration (AC50) was above 100 µM.

Consider `Cc1ccc(C)c(S(=O)(=O)Nc2cccc(C(=O)N(C)Cc3ccccc3)c2)c1` [Example 26, N-benzyl-3-((2,5-dimethylphenyl)sulfonamido)-N-methylbenzamide], for which the AC50 is above 100 µM.

With `Cc1cc(NS(=O)(=O)c2cc(C)ccc2C)cc(C(=O)N2CCCC[C@H]2C)c1` [Example 42, (R)-2,5-dimethyl-N-(3-methyl-5-(2-methylpiperidine-1-carbonyl)phenyl)benzenesulfonamide], the AC50 was above 100 µM.

The AC50 is the concentration giving half of the maximal activity seen.

The values above are taken from patent US20260138961A1, “MODULATORS OF MITOCHONDRIAL DNA REPLICATION” (Pretzel Therapeutics, Inc., priority 2022, published 2026).
